{"source": "EPA's ToxValDB 9.5", "key": {"Rattus norvegicus [1]": {"tested_on": "Rattus norvegicus", "details": "short-term, duration: 28 days, oral, gavage, M, Sprague-Dawley"}, "Rattus norvegicus [2]": {"tested_on": "Rattus norvegicus", "details": "oral"}, "[3]": {"details": "developmental, duration: 7 days, Sprague-Dawley, Body Weight: 30% reduction in body weight of dams + Developmental: 13% reduction in body weight of male pups"}, "[4]": {"details": "developmental, duration: 20 days, F, Sprague-Dawley, Developmental: 5-fold increased neonatal mortality on PNDs 1-3"}, "[5]": {"details": "developmental, duration: 21 days, F, Sprague-Dawley, Developmental: ~5-fold increased postnatal mortality and severe lung histopathology in pups"}, "[6]": {"details": "short-term, duration: 28 days, M, Sprague-Dawley, Body Weight: 12% decrease in terminal body weight"}, "[7]": {"details": "short-term, duration: 28 days, M, Sprague-Dawley, Neurological: Degeneration of gonadotropic cells of the pituitary gland at ?1.0 mg/kg/day / dense chromatin, condensed ribosomes, loss of …"}, "[8]": {"details": "short-term, duration: 28 days, M, Wistar, Neurological: Tonic convulsions in response to stimuli"}}}
{"smiles": "O=S(=O)(O)C(F)(F)C(F)(F)C(F)(F)C(F)(F)C(F)(F)C(F)(F)C(F)(F)C(F)(F)F", "note": "[Perfluorooctanesulfonic acid]", "values": [{"measurement": "LOEL", "setting": "Rattus norvegicus [1]; Clinical chemistry_Total bile acids", "result": 5, "unit": "mg/kg-day"}, {"measurement": "NOEL", "setting": "Rattus norvegicus [1]; Clinical chemistry_Total bilirubin", "result": 5, "unit": "mg/kg-day"}, {"measurement": "NOEL", "setting": "Rattus norvegicus [1]; Clinical chemistry_Total protein", "result": 5, "unit": "mg/kg-day"}, {"measurement": "LOEL", "setting": "Rattus norvegicus [1]; Clinical chemistry_Total thyroxine", "result": 0.312, "unit": "mg/kg-day"}, {"measurement": "LOEL", "setting": "Rattus norvegicus [1]; Clinical chemistry_Total triiodothyronine", "result": 0.625, "unit": "mg/kg-day"}, {"measurement": "LOEL", "setting": "Rattus norvegicus [1]; Clinical chemistry_Triglycerides", "result": 5, "unit": "mg/kg-day"}, {"measurement": "LOEL", "setting": "Rattus norvegicus [1]; Gene expression_Acox1", "result": 1.25, "unit": "mg/kg-day"}, {"measurement": "LOEL", "setting": "Rattus norvegicus [1]; Gene expression_Acyl-CoA oxidase", "result": 2.5, "unit": "mg/kg-day"}, {"measurement": "LOEL", "setting": "Rattus norvegicus [1]; Gene expression_Cyp2b1", "result": 0.312, "unit": "mg/kg-day"}, {"measurement": "LOEL", "setting": "Rattus norvegicus [1]; Gene expression_Cyp2b2", "result": 0.312, "unit": "mg/kg-day"}, {"measurement": "LOEL", "setting": "Rattus norvegicus [1]; Gene expression_Cyp4a1", "result": 0.312, "unit": "mg/kg-day"}, {"measurement": "NOEL", "setting": "Rattus norvegicus [1]; Hematology_Erythrocytes", "result": 5, "unit": "mg/kg-day"}, {"measurement": "NOEL", "setting": "Rattus norvegicus [1]; Hematology_Hematocrit", "result": 5, "unit": "mg/kg-day"}, {"measurement": "NOEL", "setting": "Rattus norvegicus [1]; Hematology_Hemoglobin", "result": 5, "unit": "mg/kg-day"}, {"measurement": "LOEL", "setting": "Rattus norvegicus [1]; Hematology_Leukocytes", "result": 5, "unit": "mg/kg-day"}, {"measurement": "LOEL", "setting": "Rattus norvegicus [1]; Hematology_Reticulocytes", "result": 2.5, "unit": "mg/kg-day"}, {"measurement": "LOEL", "setting": "Rattus norvegicus [1]; Hematology_S. neutrophils", "result": 5, "unit": "mg/kg-day"}, {"measurement": "LOEL", "setting": "Rattus norvegicus [1]; Nonneoplastic effects_Bone marrow - Hypocellularity", "result": 1.25, "unit": "mg/kg-day"}, {"measurement": "NOEL", "setting": "Rattus norvegicus [1]; Nonneoplastic effects_Kidney - Papilla, necrosis", "result": 5, "unit": "mg/kg-day"}, {"measurement": "NOEL", "setting": "Rattus norvegicus [1]; Nonneoplastic effects_Liver - Hepatocyte, cytoplasmic alteration", "result": 5, "unit": "mg/kg-day"}, {"measurement": "LOEL", "setting": "Rattus norvegicus [1]; Nonneoplastic effects_Liver - Hepatocyte, hypertrophy", "result": 1.25, "unit": "mg/kg-day"}, {"measurement": "LOEL", "setting": "Rattus norvegicus [1]; Nonneoplastic effects_Liver - Hepatocyte, vacuolization cytoplasmic", "result": 2.5, "unit": "mg/kg-day"}, {"measurement": "NOEL", "setting": "Rattus norvegicus [1]; Nonneoplastic effects_Liver - Necrosis", "result": 5, "unit": "mg/kg-day"}, {"measurement": "NOEL", "setting": "Rattus norvegicus [1]; Nonneoplastic effects_Nose - Olfactory epithelium, degeneration", "result": 5, "unit": "mg/kg-day"}, {"measurement": "NOEL", "setting": "Rattus norvegicus [1]; Nonneoplastic effects_Nose - Olfactory epithelium, hyperplasia", "result": 5, "unit": "mg/kg-day"}, {"measurement": "NOEL", "setting": "Rattus norvegicus [1]; Nonneoplastic effects_Nose - Olfactory epithelium, inflammation, suppurative", "result": 5, "unit": "mg/kg-day"}, {"measurement": "NOEL", "setting": "Rattus norvegicus [1]; Nonneoplastic effects_Nose - Olfactory epithelium, necrosis", "result": 5, "unit": "mg/kg-day"}, {"measurement": "LOEL", "setting": "Rattus norvegicus [1]; Nonneoplastic effects_Spleen - Extramedullary hematopoiesis, decreased", "result": 1.25, "unit": "mg/kg-day"}, {"measurement": "NOEL", "setting": "Rattus norvegicus [1]; Nonneoplastic effects_Stomach, forestomach - Epithelium, hyperplasia", "result": 5, "unit": "mg/kg-day"}, {"measurement": "NOEL", "setting": "Rattus norvegicus [1]; Nonneoplastic effects_Thymus - Atrophy", "result": 5, "unit": "mg/kg-day"}, {"measurement": "LOEL", "setting": "Rattus norvegicus [1]; Organ weights_Heart - Absolute", "result": 5, "unit": "mg/kg-day"}, {"measurement": "NOEL", "setting": "Rattus norvegicus [1]; Organ weights_Heart - Relative", "result": 5, "unit": "mg/kg-day"}, {"measurement": "LOEL", "setting": "Rattus norvegicus [1]; Organ weights_Liver - Absolute", "result": 0.312, "unit": "mg/kg-day"}, {"measurement": "LOEL", "setting": "Rattus norvegicus [1]; Organ weights_Liver - Relative", "result": 0.312, "unit": "mg/kg-day"}, {"measurement": "NOEL", "setting": "Rattus norvegicus [1]; Organ weights_Lung - Absolute", "result": 5, "unit": "mg/kg-day"}, {"measurement": "NOEL", "setting": "Rattus norvegicus [1]; Organ weights_Lung - Relative", "result": 5, "unit": "mg/kg-day"}, {"measurement": "LOEL", "setting": "Rattus norvegicus [1]; Organ weights_R. adrenal gland - Absolute", "result": 1.25, "unit": "mg/kg-day"}, {"measurement": "NOEL", "setting": "Rattus norvegicus [1]; Organ weights_R. adrenal gland - Relative", "result": 5, "unit": "mg/kg-day"}, {"measurement": "NOEL", "setting": "Rattus norvegicus [1]; Organ weights_R. kidney - Absolute", "result": 5, "unit": "mg/kg-day"}, {"measurement": "NOEL", "setting": "Rattus norvegicus [1]; Organ weights_R. kidney - Relative", "result": 5, "unit": "mg/kg-day"}, {"measurement": "LOEL", "setting": "Rattus norvegicus [1]; Organ weights_Spleen - Absolute", "result": 1.25, "unit": "mg/kg-day"}, {"measurement": "NOEL", "setting": "Rattus norvegicus [1]; Organ weights_Spleen - Relative", "result": 5, "unit": "mg/kg-day"}, {"measurement": "LOEL", "setting": "Rattus norvegicus [1]; Organ weights_Thymus - Absolute", "result": 5, "unit": "mg/kg-day"}, {"measurement": "LOEL", "setting": "Rattus norvegicus [1]; Organ weights_Thymus - Relative", "result": 5, "unit": "mg/kg-day"}, {"measurement": "NOEL", "setting": "Rattus norvegicus [1]; Reproductive toxicity_Altered sperm parameters", "result": 5, "unit": "mg/kg-day"}, {"measurement": "NOEL", "setting": "Rattus norvegicus [1]; Survival rates", "result": 5, "unit": "mg/kg-day"}, {"measurement": "LOAEL", "setting": "Rattus norvegicus [2]; developmental, duration: 1 days, M/F, Wistar, Developmental: Decreased spatial learning ability in prenatally or postnatally exposed offspring at ?0.8 mg/kg/day and in offspring exposure…", "result": 0.8, "unit": "mg/kg-day"}, {"measurement": "LOAEL", "setting": "Rattus norvegicus [2]; developmental, duration: 5 days, M/F, Sprague-Dawley, Body Weight: Reduced body weight in dams / approximately 98% on GD 8 and 33% on GD 20 + Developmental: Decreased birth weight in females …", "result": 18.8, "unit": "mg/kg-day"}, {"measurement": "LOAEL", "setting": "Rattus norvegicus [2]; [3]", "result": 20, "unit": "mg/kg-day"}, {"measurement": "NOAEL", "setting": "Rattus norvegicus [2]; [3]", "result": 5, "unit": "mg/kg-day"}, {"measurement": "LOAEL", "setting": "Rattus norvegicus [2]; [4]", "result": 2, "unit": "mg/kg-day"}, {"measurement": "NOAEL", "setting": "Rattus norvegicus [2]; [4]", "result": 0.6, "unit": "mg/kg-day"}, {"measurement": "LOAEL", "setting": "Rattus norvegicus [2]; [5]", "result": 2, "unit": "mg/kg-day"}, {"measurement": "NOAEL", "setting": "Rattus norvegicus [2]; [5]", "result": 0.1, "unit": "mg/kg-day"}, {"measurement": "NOAEL", "setting": "Rattus norvegicus [2]; developmental, duration: 84 days, gavage, M/F, Sprague-Dawley, developmental", "result": 7.43, "unit": "mg/L"}, {"measurement": "NOAEL", "setting": "Rattus norvegicus [2]; short-term, duration: 21 days, M, Sprague-Dawley", "result": 10, "unit": "mg/kg-day"}, {"measurement": "LOAEL", "setting": "Rattus norvegicus [2]; short-term, duration: 21 days, M, Sprague-Dawley, Reproductive: Delayed maturation of testicular Leydig cells, decreased seminal vesicle weight, decreased epididymal sperm count, decreased …", "result": 5, "unit": "mg/kg-day"}, {"measurement": "LOAEL", "setting": "Rattus norvegicus [2]; short-term, duration: 25 days, M, Sprague-Dawley, Endocrine: Decreases in serum corticosterone (~58%) and ACTH levels (~11%), decrease in corticotrophin releasing hormone levels in …", "result": 0.5, "unit": "mg/kg-day"}, {"measurement": "NOAEL", "setting": "Rattus norvegicus [2]; short-term, duration: 28 days, M, Sprague-Dawley", "result": 6, "unit": "mg/kg-day"}, {"measurement": "LOAEL", "setting": "Rattus norvegicus [2]; [6]", "result": 3.21, "unit": "mg/kg-day"}, {"measurement": "NOAEL", "setting": "Rattus norvegicus [2]; [6]", "result": 1.33, "unit": "mg/kg-day"}, {"measurement": "LOAEL", "setting": "Rattus norvegicus [2]; short-term, duration: 28 days, M, Sprague-Dawley, Death: 100% by day 26", "result": 20, "unit": "mg/kg-day"}, {"measurement": "LOAEL", "setting": "Rattus norvegicus [2]; short-term, duration: 28 days, M, Sprague-Dawley, Endocrine: Decreased serum prolactin (~78%) and estradiol concentrations (~18%)", "result": 3, "unit": "mg/kg-day"}, {"measurement": "LOAEL", "setting": "Rattus norvegicus [2]; short-term, duration: 28 days, M, Sprague-Dawley, Hepatic: Hepatocellular hypertrophy and focal necrosis at ?5 mg/kg/day / fatty degeneration at 20 mg/kg/day + Neurological: Cachexia and …", "result": 5, "unit": "mg/kg-day"}, {"measurement": "NOAEL", "setting": "Rattus norvegicus [2]; short-term, duration: 28 days, M, Sprague-Dawley, Hepatic: Increased relative liver weight at ?0.14 mg/kg/day", "result": 6.34, "unit": "mg/kg-day"}, {"measurement": "LOAEL", "setting": "Rattus norvegicus [2]; [7]", "result": 1, "unit": "mg/kg-day"}, {"measurement": "NOAEL", "setting": "Rattus norvegicus [2]; [7]", "result": 0.5, "unit": "mg/kg-day"}, {"measurement": "LOAEL", "setting": "Rattus norvegicus [2]; [8]", "result": 8.5, "unit": "mg/kg-day"}, {"measurement": "NOAEL", "setting": "Rattus norvegicus [2]; [8]", "result": 2, "unit": "mg/kg-day"}]}
